Source: PubChem BioAssay (NCI)
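Interpolation was linear, between the two tested concentrations surrounding the appropriate level; five concentrations were tested over 48 hours in 96-well plates. Definition used: TGI = concentration required for complete inhibition of growth.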

Experiments:
Test in all cases: growth of human tumour cells (NCI), 48 h
[1] = tested on: 786-0 renal
[2] = tested on: A498 renal
[3] = tested on: A549 NSCLC
[4] = tested on: ACHN renal
[5] = tested on: CAKI-1 renal
[6] = tested on: CCRF-CEM leukemia
[7] = tested on: COLO 205 colon
[8] = tested on: DLD-1 colon
[9] = tested on: DMS 114 small cell lung
[10] = tested on: DMS 273 small cell lung
[11] = tested on: EKVX NSCLC
[12] = tested on: HCT-116 colon
[13] = tested on: HCT-15 colon
[14] = tested on: HL-60(TB) leukemia
[15] = tested on: HOP-18 NSCLC
[16] = tested on: HOP-62 NSCLC
[17] = tested on: HOP-92 NSCLC
[18] = tested on: HT29 colon
[19] = tested on: K-562 leukemia
[20] = tested on: KM12 colon
[21] = tested on: KM20L2 colon
[22] = tested on: LOX IMVI melanoma
[23] = tested on: LXFL 529 NSCLC
[24] = tested on: M14 melanoma
[25] = tested on: M19-MEL melanoma
[26] = tested on: MALME-3M melanoma
[27] = tested on: MOLT-4 leukemia
[28] = tested on: NCI-H226 lung
[29] = tested on: NCI-H460 lung
[30] = tested on: NCI-H522 lung
[31] = tested on: OVCAR-3 ovarian
[32] = tested on: OVCAR-4 ovarian
[33] = tested on: OVCAR-5 ovarian
[34] = tested on: OVCAR-8 ovarian
[35] = tested on: RPMI-8226 leukemia
[36] = tested on: RXF 393 renal
[37] = tested on: RXF-631 renal
[38] = tested on: SF-268 CNS
[39] = tested on: SK-MEL-2 melanoma
[40] = tested on: SK-MEL-28 melanoma
[41] = tested on: SK-MEL-5 melanoma
[42] = tested on: SK-OV-3 ovarian
[43] = tested on: SN12C renal
[44] = tested on: SNB-19 CNS
[45] = tested on: SNB-75 CNS
[46] = tested on: SNB-78 CNS
[47] = tested on: SR leukemia
[48] = tested on: SW-620 colon
[49] = tested on: TK-10 renal
[50] = tested on: U251 CNS
[51] = tested on: UACC-257 melanoma
[52] = tested on: UACC-62 melanoma
[53] = tested on: UO-31 renal
[54] = tested on: XF 498 CNS
[55] = tested on: BT-549 breast
[56] = tested on: DU-145 prostate
[57] = tested on: HCC-2998 colon
[58] = tested on: HS 578T breast
[59] = tested on: IGROV1 ovarian
[60] = tested on: MCF7 breast
[61] = tested on: MDA-MB-231 breast
[62] = tested on: MDA-MB-435
[63] = tested on: MDA-N
[64] = tested on: NCI-H23 lung
[65] = tested on: NCI/ADR-RES ovarian
[66] = tested on: PC-3 prostate
[67] = tested on: SF-295 CNS
[68] = tested on: SF-539 CNS
[69] = tested on: T-47D breast

Compound `CC(=O)OCC1OC(n2cccnc2=O)C(OC(C)=O)C1OC(C)=O` (stereo not drawn) has a TGI [1] of over 100 µM, a TGI [2] of over 100 µM and a TGI [3] of over 100 µM. The TGI [4] was over 100 µM, the TGI [5] was over 100 µM and the TGI [6] was over 100 µM. The TGI [7] was over 100 µM, the TGI [8] was over 100 µM and the TGI [9] was over 100 µM. For the same compound, the TGI [10] was over 100 µM, the TGI [11] was over 100 µM and the TGI [12] was over 100 µM. For the same compound, the TGI [13] was over 100 µM, the TGI [14] was over 100 µM and the TGI [15] was over 100 µM. The TGI [16] was over 100 µM, the TGI [17] was over 100 µM and the TGI [18] was over 100 µM. For the same compound, the TGI [19] was over 100 µM, the TGI [20] was over 100 µM and the TGI [21] was over 100 µM. For the same compound, the TGI [22] was over 100 µM, the TGI [23] was over 100 µM and the TGI [24] was over 100 µM. It also gave a TGI [25] of over 100 µM, a TGI [26] of over 100 µM and a TGI [27] of over 100 µM. It also gave a TGI [28] of over 100 µM, a TGI [29] of over 100 µM and a TGI [30] of over 100 µM. For the same compound, the TGI [31] was over 100 µM, the TGI [32] was over 100 µM and the TGI [33] was over 100 µM. The TGI [34] was over 100 µM, the TGI [35] was over 100 µM and the TGI [36] was over 100 µM. The TGI [37] was over 100 µM, the TGI [38] was over 100 µM and the TGI [39] was over 100 µM. It also gave a TGI [40] of over 100 µM, a TGI [41] of over 100 µM and a TGI [42] of over 100 µM. It also gave a TGI [43] of over 100 µM, a TGI [44] of over 100 µM and a TGI [45] of over 100 µM. It also gave a TGI [46] of over 100 µM, a TGI [47] of over 100 µM and a TGI [48] of over 100 µM. The TGI [49] was over 100 µM, the TGI [50] was over 100 µM and the TGI [51] was over 100 µM. It also gave a TGI [52] of over 100 µM, a TGI [53] of over 100 µM and a TGI [54] of over 100 µM.

Work on `CCCC(=O)OCC1OC(n2cc(F)c(=O)[nH]c2=O)CC1O` (stereo not drawn) yielded a TGI [1] of over 10 µM, a TGI [2] of over 9.04 µM and a TGI [3] of over 10 µM. It also gave a TGI [4] of over 10 µM, a TGI [55] of over 10 µM and a TGI [5] of over 10 µM. For the same compound, the TGI [6] was over 10 µM, the TGI [7] was over 10 µM and the TGI [56] was over 10 µM. The TGI [11] was over 10 µM, the TGI [57] was over 2.97 µM and the TGI [12] was over 10 µM. It also gave a TGI [13] of over 10 µM, a TGI [14] of over 10 µM and a TGI [16] of over 10 µM. For the same compound, the TGI [17] was over 10 µM, the TGI [58] was over 10 µM and the TGI [18] was over 10 µM. It also gave a TGI [59] of over 10 µM, a TGI [19] of over 10 µM and a TGI [20] of over 10 µM. It also gave a TGI [22] of over 8.79 µM, a TGI [24] of over 10 µM and a TGI [26] of over 10 µM. For the same compound, the TGI [60] was over 10 µM, the TGI [61] was over 10 µM and the TGI [62] was over 10 µM. For the same compound, the TGI [63] was over 10 µM, the TGI [27] was over 10 µM and the TGI [28] was over 10 µM. The TGI [64] was 1.66 µM, the TGI [29] was over 10 µM and the TGI [30] was over 10 µM. The TGI [65] was over 10 µM, the TGI [31] was over 10 µM and the TGI [32] was over 10 µM. The TGI [33] was over 10 µM, the TGI [34] was over 10 µM and the TGI [66] was over 10 µM. The TGI [35] was over 10 µM, the TGI [36] was over 10 µM and the TGI [38] was over 10 µM. For the same compound, the TGI [67] was over 3.02 µM, the TGI [68] was 0.247 µM and the TGI [39] was over 10 µM. The TGI [40] was over 10 µM, the TGI [41] was 1.35 µM and the TGI [42] was over 10 µM. The TGI [43] was over 10 µM, the TGI [44] was over 10 µM and the TGI [45] was 9.55 µM. The TGI [47] was over 10 µM, the TGI [48] was over 10 µM and the TGI [69] was over 10 µM. It also gave a TGI [49] of over 10 µM, a TGI [50] of over 10 µM and a TGI [51] of over 10 µM. It also gave a TGI [52] of over 10 µM and a TGI [53] of over 10 µM.
